Activity calls are given as the source filed them. The rule behind the calls is not given here.
How the values were obtained:
Bos taurus [1] = organism: Bos taurus; experiment: (§1) Inhibition of bovine hyaluronidase at pH 5.0
[2] = Inhibition of Streptococcus agalactiae 4755 hyaluronidase at pH 5.0
[3] = as §1; parameters: species or system Bos taurus
Streptococcus agalactiae [4] = experiment: Inhibition of Streptococcus agalactiae 4755 hyaluronidase upto 13 mM at pH 5.0
Bos taurus [5] = organism: Bos taurus; experiment: Inhibition of bovine hyaluronidase up to 13 mM at pH 5.0
[6] = Inhibition of Streptococcus pneumoniae hyaluronidase
Bos taurus [7] = organism: Bos taurus; experiment: Inhibition of bovine hyaluronidase up to 100 mM at pH 5.0
Bos taurus [8] = organism: Bos taurus; experiment: Inhibition of bovine hyaluronidase up to 1.1 mM at pH 5.0
Streptococcus agalactiae [9] = experiment: Inhibition of Streptococcus agalactiae 4755 hyaluronidase at 1100 uM at pH 5.0
Bos taurus [10] = organism: Bos taurus; experiment: Inhibition of bovine hyaluronidase at 1430 uM
Streptococcus agalactiae [11] = experiment: Inhibition of Streptococcus agalactiae 4755 hyaluronidase at 190 uM at pH 5.0
Bos taurus [12] = organism: Bos taurus; experiment: Inhibition of bovine hyaluronidase up to 200 uM at pH 5.0
Streptococcus agalactiae [13] = experiment: Inhibition of Streptococcus agalactiae 4755 hyaluronidase at 160 uM at pH 5.0
Streptococcus agalactiae [14] = experiment: Inhibition of Streptococcus agalactiae 4755 hyaluronidase at 2000 uM at pH 5.0
Streptococcus agalactiae [15] = experiment: Inhibition of Streptococcus agalactiae 4755 hyaluronidase upto 200 uM at pH 5.0

Row | SMILES | IC50 [2] [µM] | IC50 [3] [µM] | also measured
1 | O=C(CCCCCOCc1ccccc1)OC[C@H](O)[C@H]1OC(=O)C(O)=C1O | 437 | – | Activity (Bos taurus [1]): inactive
2 | CCCCCCCCCCCCCCCCCC(=O)OC[C@H](O)[C@H]1OC(=O)C(O)=C1O [ASCORBYL STEARATE] | 0.9 | 39 | –
3 | COC1=C(OC)[C@@H]([C@@H](O)CO)OC1=O | – | – | Activity (Streptococcus agalactiae [4]): inactive; Activity (Bos taurus [5]): inactive
4 | O=C(CCCCCOc1ccc(OCc2ccccc2)cc1)OC[C@H](O)[C@H]1OC(=O)C(O)=C1O | 76 | 210 | –
5 | CCCCCC(=O)OC[C@H](O)[C@H]1OC(=O)C(O)=C1O | 475 | – | Activity (Bos taurus [1]): inactive
6 | O=C1O[C@H]([C@@H](O)CO)C(O)=C1O [ASCORBIC ACID] | 6100 | – | IC50 [6]: 5800 µM; Activity (Bos taurus [7]): inactive
7 | CC(C)(C)C(=O)OC[C@H](O)[C@H]1OC(=O)C(O)=C1O | – | – | Activity (Bos taurus [8]): inactive; inhibition (Streptococcus agalactiae [9]): 43%
8 | O=C(CCCCCOc1ccc(-c2ccccc2)cc1)OC[C@H](O)[C@H]1OC(=O)C(O)=C1O | 61 | 188 | –
9 | O=C1O[C@H]([C@@H](O)COC(=O)c2ccccc2)C(O)=C1O | 132 | – | inhibition (Bos taurus [10]): 33%
10 | CCCCCCCCCCCC(=O)OC[C@H](O)[C@H]1OC(=O)C(O)=C1O | 47 | 208 | –
11 | CCCCCCCCCCCCCC(=O)OC[C@H](O)[C@H]1OC(=O)C(O)=C1O | 8.4 | 71 | –
12 | CCCCCCCCCCCCC(=O)OC[C@H](O)[C@H]1OC(=O)C(O)=C1O | 14.3 | 96 | –
13 | O=C(CCCCCOc1ccccc1)OC[C@H](O)[C@H]1OC(=O)C(O)=C1O | 717 | – | Activity (Bos taurus [1]): inactive
14 | O=C(CCCCCCCCCCOc1ccc(-c2ccccc2)cc1)OC[C@H](O)[C@H]1OC(=O)C(O)=C1O | 7.5 | 37 | –
15 | O=C(CCCCCCCCCCOc1ccccc1)OC[C@H](O)[C@H]1OC(=O)C(O)=C1O | 31 | 105 | –
16 | CCc1ccc(OCCCCCC(=O)OC[C@H](O)[C@H]2OC(=O)C(O)=C2O)cc1 | 280 | – | Activity (Bos taurus [1]): inactive
17 | CCCCCCCCCCC(=O)OC[C@H](O)[C@H]1OC(=O)C(O)=C1O | 72 | 580 | –
18 | CCCCCCCCCC(=O)OC[C@H](O)[C@H]1OC(=O)C(O)=C1O | 102 | 1380 | –
19 | O=C1O[C@H]([C@@H](O)CO)C(OCc2ccccc2)=C1OCc1ccccc1 | 355 | – | Activity (Bos taurus [5]): inactive
20 | CCCCCCCC(=O)OC[C@H](O)[C@H]1OC(=O)C(O)=C1O | 772 | – | Activity (Bos taurus [1]): inactive
21 | O=C(Cc1ccc(-c2ccccc2)cc1)OC[C@H](O)[C@H]1OC(=O)C(O)=C1O | 358 | 2010 | –
22 | CCCCCCCCCCCCCCCC(=O)OC[C@H](O)[C@H]1OC(=O)C2=C1OCCO2 | – | – | inhibition (Streptococcus agalactiae [11]): 32%; Activity (Bos taurus [12]): inactive
23 | CCCCCCCCCCCCCCCC(=O)OC[C@H](O)[C@H]1OC(=O)C(OC)=C1OC | – | – | Activity (Bos taurus [12]): inactive; inhibition (Streptococcus agalactiae [13]): 5%
24 | O=C1O[C@H]([C@@H](O)CO)C2=C1OCCO2 | – | – | inhibition (Streptococcus agalactiae [14]): 24%; Activity (Bos taurus [5]): inactive
25 | CCCCCCCCCCCCCCCC(=O)OC[C@H](O)[C@H]1OC(=O)C(O)=C1O [ASCORBYL PALMITATE] | 4.2 | 57 | –
26 | CCCCCCCCCCCCCCCC(=O)OC[C@H](O)[C@H]1OC(=O)C(OCc2ccccc2)=C1OCc1ccccc1 | – | – | Activity (Streptococcus agalactiae [15]): inactive; Activity (Bos taurus [12]): inactive
27 | O=C(CCCCCOCc1ccc(-c2ccccc2)cc1)OC[C@H](O)[C@H]1OC(=O)C(O)=C1O | 102 | 543 | –
